The target of one experiment is T1, mouse RORγ (Mus musculus, UniProt P51450).
T1 construct: mouse, NM_011281.2 and from Ile251 to Lys516; expressed in transfected cells; host or cells: CHO cells (transient co-transfection with pG5-Luc reporter)
T1 sequence (P51450 251-516): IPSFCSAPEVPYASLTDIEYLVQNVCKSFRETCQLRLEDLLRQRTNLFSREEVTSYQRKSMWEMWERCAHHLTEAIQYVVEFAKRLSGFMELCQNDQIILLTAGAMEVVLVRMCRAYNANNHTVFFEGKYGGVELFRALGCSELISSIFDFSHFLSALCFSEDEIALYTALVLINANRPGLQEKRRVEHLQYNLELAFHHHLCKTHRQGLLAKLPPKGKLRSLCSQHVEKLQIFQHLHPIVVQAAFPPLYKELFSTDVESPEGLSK
The experiment can be described thus: Luciferase reporter gene assay of inhibitory effect against RORγ transcriptional activity (GAL4-mRORγ plasmid in CHO cells). It counts as cell-based. As to conditions: read-out: LUC EC50 mRORg. In a few lines: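 CHO cells transiently co-transfected with GAL4-mouse RORγ LBD (Ile251–Lys516) and GAL4-dependent luciferase reporter; eight compound concentrations, 0.1% DMSO, 2 days at 37 °C. Luminescence as %-of-vehicle control; EC50 by curve fit, cytotoxic concentrations excluded.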
Background: A reporter such as luciferase makes a cellular process visible.

The next experiment has as its target T2, human RORγ (Homo sapiens, UniProt P51449).
T2 construct: human, NM_005060.3 and from Ser253 to Lys518; expressed in transfected cells; host or cells: CHO cells (transient co-transfection with pG5-Luc reporter)
T2 sequence (P51449 253-518): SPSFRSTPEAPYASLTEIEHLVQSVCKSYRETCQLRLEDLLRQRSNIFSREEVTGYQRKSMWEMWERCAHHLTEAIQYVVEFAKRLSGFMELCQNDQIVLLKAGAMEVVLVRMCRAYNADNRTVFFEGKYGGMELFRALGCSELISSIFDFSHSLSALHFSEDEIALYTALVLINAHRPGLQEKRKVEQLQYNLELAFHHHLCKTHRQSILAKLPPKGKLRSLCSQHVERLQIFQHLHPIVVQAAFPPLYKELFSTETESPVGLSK
Kind of experiment: Luciferase reporter gene assay of inhibitory effect against RORγ transcriptional activity (GAL4-hRORγ plasmid in CHO cells). The format is cell-based. As to conditions: read-out: LUC EC50 hRORg.

In general, EC50 refers to the concentration needed to bring the measured effect to its halfway point. `Cc1ccc(NC(=O)C[C@H](CCC(=O)O)n2nnc([C@H]3C[C@@H](CC(C)(C)C)C3)c2C2CC2)c(Cl)c1` [Example F-682, (S)-5-(2-chloro-4-methyl-phenylcarbamoyl)-4-{5-cyclopropyl-4-[3-(2,2-dimethyl-propyl)-cyclobutyl]-[1,2,3]triazol-1-yl}pentanoic acid]: the EC50 on mouse RORγ and on human RORγ was < 3 µM each time.
Regarding `Cc1ccc(NC(=O)[C@H](CCC(=O)O)Cc2noc([C@H]3C[C@@H](CC(C)(C)C)C3)c2C2CC2)c(Cl)c1` [Example F-683], the EC50 at mouse RORγ and at human RORγ was < 3 µM each time.
`Cc1ccc(NC(=O)[C@@H](CCC(=O)O)Cc2noc([C@H]3C[C@@H](CC(C)(C)C)C3)c2C2CC2)c(Cl)c1` [Example F-684, (S)-4-(2-chloro-4-methyl-phenylcarbamoyl)-5-{4-cyclopropyl-5-[3-(2,2-dimethyl-propyl)-cyclobutyl]-isoxazol-3-yl}-pentanoic acid]: the EC50 on mouse RORγ and on human RORγ was < 3 µM in each case.
With `Cc1ccc(NC(=O)[C@@H](CCC(=O)O)Cc2noc([C@H]3C[C@@H](CC(C)(C)C)C3)c2C2CC2)c(C)c1` [Example F-685], the half-maximal effective concentration (EC50) at mouse RORγ and at human RORγ was < 3 µM each time.
As to `CC(=O)N1CC(c2noc([C@H]3C[C@@H](CC(C)(C)C)C3)c2C2CC2)[C@@H](C(=O)Nc2ccc(C)cc2Cl)C1` (stereo partly drawn) [Example F-686], the EC50 on mouse RORγ and on human RORγ was < 3 µM throughout.
On to `Cc1ccc(NC(=O)C2CN(CC(=O)O)CC2c2noc([C@H]3C[C@@H](CC(C)(C)C)C3)c2C2CC2)c(Cl)c1` (stereo partly drawn) [Example F-687], for which the EC50 on mouse RORγ and on human RORγ was < 3 µM throughout.
As for `Cc1ccc(NC(=O)[C@H]2CN(C(=O)CCC(=O)O)C[C@@H]2c2noc([C@H]3C[C@@H](CC(C)(C)C)C3)c2C2CC2)c(Cl)c1` [Example F-688, 4-((3R,4R)-3-(2-Chloro-4-methyl-phenylcarbamoyl)-4-{4-cyclopropyl-5-[3-(2,2-dimethyl-propyl)-cyclobutyl]-isoxazol-3-yl}pyrrolidin-1-yl)-4-oxo-butanoic acid], the half-maximal effective concentration (EC50) on mouse RORγ and on human RORγ was < 3 µM each time.
In the case of `Cc1ccc(NC(=O)C[C@H](CCCO)c2noc([C@H]3C[C@@H](CC(C)(C)C)C3)c2C2CC2)c(C)n1` [Example F-689], the EC50 at mouse RORγ and on human RORγ was < 3 µM in each case.
On to `CCC(C)(C)C[C@H]1C[C@@H](c2onc([C@@H](CCC(=O)O)CC(=O)Nc3ccc(C)nc3C)c2C2CC2)C1` [Example F-692], for which the EC50 at mouse RORγ and on human RORγ was < 3 µM each time.
On to `COc1c(C)ccc(NC(=O)C[C@H](CCCO)c2noc([C@H]3C[C@@H](CC(C)(C)C)C3)c2C2CC2)c1C` [Example F-696], for which the EC50 at mouse RORγ and on human RORγ was < 3 µM each time.
Consider `CCC(C)(C)C[C@H]1C[C@@H](c2onc([C@@H](CCC(=O)O)CC(=O)Nc3ccc(C)nc3C)c2C(F)(F)F)C1` [Example F-697], for which the EC50 at mouse RORγ and at human RORγ was < 3 µM throughout.
In the case of `Cc1ccc(NC(=O)C[C@H](CCCO)c2noc([C@H]3C[C@@H](CC(C)(C)C)C3)c2C2CC2)c(C)c1O` [Example F-699], the EC50 on mouse RORγ and on human RORγ was < 3 µM each time.
`Cc1ccc(NC(=O)C[C@H](CCC(=O)O)c2noc([C@H]3C[C@@H](CCc4ccccc4)C3)c2C2CC2)c(Cl)c1` [Example F-700]: the EC50 on mouse RORγ and at human RORγ was < 3 µM throughout.
In the case of `Cc1ccc(NC(=O)C[C@H](CCC(=O)O)c2nnn(-c3ccc(CCC4CCCC4)cc3)c2C2CC2)c(Cl)c1` [Example F-701], the EC50 at mouse RORγ and on human RORγ was < 3 µM in each case.
Turning to `Cc1ccc(NC(=O)C[C@H](CCCO)c2noc(-c3cc(CC(C)C)[nH]n3)c2C2CC2)c(F)c1` [Example F-702], the EC50 on mouse RORγ and at human RORγ was < 3 µM each time.
As to `Cc1ccc(NC(=O)C[C@H](CCC(=O)O)n2nnc([C@H]3C[C@@H](CC(C)(C)C)C3)c2C2CC2)c(F)c1` [Example F-703], the EC50 on mouse RORγ and on human RORγ was < 3 µM each time.
Turning to `Cc1ccc(NC(=O)CCc2noc([C@H]3C[C@@H](CC(C)(C)C)C3)c2COCC(=O)O)c(Cl)c1` [Example F-704], the EC50 at mouse RORγ and at human RORγ was > 3 µM throughout.
In the case of `Cc1ccc(NC(=O)C[C@H](CCCO)c2noc(-c3cn(CCC(C)(C)C)nc3C(F)(F)F)c2C2CC2)c(F)c1` [Example F-705], the concentration giving a half-maximal response (EC50) on mouse RORγ and on human RORγ was > 3 µM throughout.
As for `Cc1ccc(NC(=O)C[C@H](CCC(=O)O)c2nnn([C@H]3C[C@@H](CC(C)(C)C(C)C)C3)c2C2CC2)c(F)c1` [Example F-706], the EC50 at mouse RORγ and on human RORγ was < 3 µM in each case.
`Cc1ccc(NC(=O)C[C@H](CCC(=O)O)c2nnn([C@H]3C[C@@H](CC(C)(C)C(C)C)C3)c2C(F)(F)F)c(F)c1` [Example F-707]: the EC50 on mouse RORγ and at human RORγ was < 3 µM in each case.
Consider `Cc1ccc(NC(=O)C[C@H](CCC(=O)O)c2nnc([C@H]3C[C@@H](CC(C)(C)C(C)C)C3)n2C2CC2)c(Cl)c1` [Example F-708], for which the EC50 at mouse RORγ and at human RORγ was < 3 µM each time.
Consider `Cc1ccc(NC(=O)C[C@H](CCCO)c2nnn([C@H]3C[C@@H](CC(C)(C)C(C)C)C3)c2C2CC2)c(F)c1` [Example F-709], for which the EC50 at mouse RORγ and on human RORγ was < 3 µM throughout.
Regarding `Cc1ccc(NC(=O)C[C@H](CCCO)c2nnn([C@H]3C[C@@H](CC(C)(C)C(C)C)C3)c2C(F)(F)F)c(F)c1` [Example F-710], the EC50 at mouse RORγ and at human RORγ was < 3 µM each time.
In the case of `CC(C)(C)C[C@H]1C[C@@H](c2onc([C@@H](CCC(=O)O)CC(=O)NC3CCC3)c2C2CC2)C1` [Example F-711], the EC50 on mouse RORγ and on human RORγ was > 3 µM throughout.
On to `CC(C)(C)C[C@H]1C[C@@H](c2onc([C@@H](CCC(=O)O)CC(=O)NC34CC(C3)C4)c2C2CC2)C1` [Example F-712], for which the EC50 on mouse RORγ and at human RORγ was > 3 µM in each case.
For `Cc1ccc(NC(=O)C[C@H](CCC(=O)O)c2nnn([C@H]3C[C@@H](CC(C)(C)C(C)C)C3)c2C2CC2)c(Cl)c1` [Example F-713], the EC50 on mouse RORγ and on human RORγ was < 3 µM each time.
With `Cc1ccc(NC(=O)C[C@H](CCC(=O)O)c2onc([C@H]3C[C@@H](CC(C)(C)C)C3)c2C2CC2)c(Cl)c1` [Example F-715, (S)-5-(2-Chloro-4-methyl-phenylcarbamoyl)-4-{4-cyclopropyl-3-[3-(2,2-dimethyl-propyl)-cyclobutyl]-isoxazol-5-yl}-pentanoic acid], the EC50 on mouse RORγ and on human RORγ was < 3 µM each time.
Turning to `Cc1ccc(NC(=O)C[C@H](CCC(=O)O)c2noc([C@H]3C[C@@H](CC(C)(C)CO)C3)c2C2CC2)c(Cl)c1` [Example F-716], the EC50 at mouse RORγ and at human RORγ was < 3 µM throughout.
Turning to `CC(C)(C)C[C@H]1C[C@@H](c2noc([C@@H](CCC(=O)O)CC(=O)Nc3ccc(Cl)cc3F)c2C2CC2)C1` [Example F-717], the EC50 at mouse RORγ and at human RORγ was < 3 µM throughout.
Consider `CC(C)(C)C[C@H]1C[C@@H](c2noc([C@@H](CCC(=O)O)CC(=O)Nc3ccc(Cl)cc3Cl)c2C2CC2)C1` [Example F-718], for which the EC50 on mouse RORγ and on human RORγ was < 3 µM in each case.

The record behind these values is US20160137639A1, “TRIAZOLE-ISOXAZOLE COMPOUND AND MEDICAL USE THEREOF” (JAPAN TOBACCO INC., priority 2012, published 2016).
